# In article PMC3444172 (The Journal of organic chemistry, 2012):
# Like-named read-outs stand apart in the source and are kept apart here.
# Key:
# Format in all cases: biochemical
# [1] = target: M. tuberculosis lumazine synthase (recombinant homopentameric) (Mycobacterium tuberculosis, UniProt P9WHE9); details: for inhibitory activity in words: lumazine synthase inhibition, qualitative statement
# [2] = target: T1, S. pombe lumazine synthase (recombinant homopentameric) (Schizosaccharomyces pombe, UniProt Q9UUB1); experiment: Kinetic assay of lumazine synthase inhibitors, S. pombe enzyme
# T1 sequence (Q9UUB1 1-159): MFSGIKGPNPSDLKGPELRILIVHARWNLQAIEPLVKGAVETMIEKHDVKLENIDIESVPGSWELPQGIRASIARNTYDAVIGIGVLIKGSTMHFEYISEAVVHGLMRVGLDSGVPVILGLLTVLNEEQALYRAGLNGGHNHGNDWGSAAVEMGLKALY
# [3] = target: E. coli riboflavin synthase (recombinant) (Escherichia coli, UniProt P0AFU8); experiment: Kinetic assay of riboflavin synthase inhibitors, E. coli enzyme
# [4] = target: M. tuberculosis riboflavin synthase (recombinant) (Mycobacterium tuberculosis, UniProt P9WK35); experiment: Kinetic assay of riboflavin synthase inhibitors, M. tuberculosis enzyme
# [5] = substrate 2 constant, substrate 1 varied, Tris·HCl pH 7.0
# [6] = substrate 3 varied, Tris·HCl pH 7.0
# E. coli riboflavin synthase (recombinant), sequence (P0AFU8 whole entry): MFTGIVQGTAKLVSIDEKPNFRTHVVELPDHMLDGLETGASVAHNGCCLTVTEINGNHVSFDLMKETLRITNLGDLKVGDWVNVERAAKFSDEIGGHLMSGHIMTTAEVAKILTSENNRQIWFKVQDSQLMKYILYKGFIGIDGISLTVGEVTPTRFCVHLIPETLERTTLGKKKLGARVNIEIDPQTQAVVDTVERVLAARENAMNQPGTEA
# M. tuberculosis riboflavin synthase (recombinant), sequence (P9WK35 whole entry): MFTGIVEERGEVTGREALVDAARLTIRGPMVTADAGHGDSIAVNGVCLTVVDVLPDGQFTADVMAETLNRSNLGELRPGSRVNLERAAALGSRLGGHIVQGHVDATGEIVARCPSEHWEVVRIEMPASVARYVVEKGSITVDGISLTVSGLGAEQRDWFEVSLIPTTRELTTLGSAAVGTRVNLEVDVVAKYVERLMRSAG
# M. tuberculosis lumazine synthase (recombinant homopentameric), sequence (P9WHE9 whole entry): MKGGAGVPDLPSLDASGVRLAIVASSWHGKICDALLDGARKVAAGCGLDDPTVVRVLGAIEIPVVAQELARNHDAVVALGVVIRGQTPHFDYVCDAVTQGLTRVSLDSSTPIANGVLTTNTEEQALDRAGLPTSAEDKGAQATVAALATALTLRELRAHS
Structure (SMILES),Mechanism of inhibition [1],Kcat (rate constant ES → E + P) ([1]; pH 7),"Ks (substrate dissociation constant, E + S ⇌ ES) [1, 5]",Mechanism of inhibition [2],"Kcat (rate constant ES → E + P) [2, 5]","Kis (ES + I ⇌ ESI) [2, 5]","Ks (substrate dissociation constant, E + S ⇌ ES) [2, 5]",Mechanism of inhibition [3],"Kcat (rate constant ES → E + P) [3, 6]","Ks (substrate dissociation constant, E + S ⇌ ES) [3, 6]",Mechanism of inhibition [4],"Kcat (rate constant ES → E + P) [4, 6]","Kis (ES + I ⇌ ESI) [4, 6]","Ks (substrate dissociation constant, E + S ⇌ ES) [4, 6]","Kcat (rate constant ES → E + P) [1, 5]","Kis (ES + I ⇌ ESI) [1, 5]",inhibitory activity in words [1],"Ki (E + I ⇌ EI) [4, 6]","Ki (E + I ⇌ EI) [1, 5]"
"O=c1[nH]c(OC[C@H](O)[C@H](O)[C@H](O)CO)c([N+](=O)[O-])c(=O)[nH]1 [Compound 22, 5-Nitro-6-((2S,3R,4R)-2,3,4,5-tetrahydroxypentyloxy)pyrimidine-2,4(1H,3H)-dione]",Competitive,0.19 ± 0.00 m^−1,25 ± 2 µM,Partial,1.4 ± 0.0 m^−1,110 ± 40 µM,1.4 ± 0.1 µM,Competitive,3.3 ± 0.01 m^−1,2.6 ± 0.2 µM,Partial,0.26 ± 0.01 m^−1,26 ± 6 µM,7.1 ± 0.7 µM,–,–,–,–,–
"O=C(CC(F)(F)F)Nc1c(NC[C@H](O)[C@H](O)[C@H](O)CO)[nH]c(=O)[nH]c1=O [Compound 66, N-(2,4-Dioxo-6-((2S,3S,4R)-2,3,4,5-tetrahydroxypentylamino)-1,2,3,4-tetrahydropyrimidin-5-yl)-3,3,3-trifluoropropanamide]",Partial,–,20 ± 1 µM,–,–,–,–,–,–,–,Uncompetitive,0.18 ± 0.1 m^−1,> 1000 µM,6.6 ± 0.3 µM,0.76 ± 0.02 m^−1,309 ± 125 µM,–,–,–
"C=C(C)C(=O)Nc1c(Cl)[nH]c(=O)[nH]c1=O [Compound 78, N-(6-Chloro-2,4-dioxo-1,2,3,4-tetrahydropyrimidin-5-yl)methacrylamide]",Uncompetitive,–,18 ± 2 µM,–,–,–,–,–,–,–,Uncompetitive,0.58 ± 0.4 m^−1,694 ± 88 µM,8.6 ± 0.4 µM,0.53 ± 0.03 m^−1,>1000 µM,–,–,–
CCC(=O)Nc1c(OC[C@H](O)[C@H](O)[C@H](O)CO)[nH]c(=O)[nH]c1=O [Compound 43],Uncompetitive,0.39 ± 0.00 m^−1,18 ± 2 µM,–,–,–,–,–,–,–,Uncompetitive,0.21 ± 0.00 m^−1,>1000 µM,4.4 ± 0.2 µM,–,–,totally inactive,–,–
CC(C)C(=O)Nc1c(OC[C@H](O)[C@H](O)[C@H](O)CO)[nH]c(=O)[nH]c1=O [Compound 40],Uncompetitive,0.59 ± 0.01 m^−1,16 ± 1 µM,–,–,–,–,–,–,–,Uncompetitive,0.84 ± 0.02 m^−1,698 ± 108 µM,9.3 ± 0.6 µM,–,766 ± 97 µM,totally inactive,–,–
"O=C(CCl)Nc1c(NC[C@H](O)[C@H](O)[C@H](O)CO)[nH]c(=O)[nH]c1=O [Compound 63, 2-Chloro-N-(2,4-dioxo-6-((2S,3S,4R)-2,3,4,5-tetrahydroxypentylamino)-1,2,3,4-tetrahydropyrimidin-5-yl)acetamide]",Partial,–,24 ± 2 µM,–,–,–,–,–,–,–,Uncompetitive,0.66 ± 0.01 m^−1,> 1000 µM,8.6 ± 0.4 µM,0.62 ± 0.02 m^−1,53 ± 12 µM,–,–,–
"CC(Cl)C(=O)Nc1c(NC[C@H](O)[C@H](O)[C@H](O)CO)[nH]c(=O)[nH]c1=O (stereo partly drawn) [Compound 60, 2-Chloro-N-(2,4-dioxo-6-((2S,3S,4R)-2,3,4,5-tetrahydroxypentylamino)1,2,3,4-tetrahydropyrimidin-5-yl)propanamide]",Competitive,–,17 ± 1 µM,–,–,–,–,–,–,–,Competitive,0.72 ± 0.01 m^−1,–,11 ± 1 µM,0.85 ± 0.03 m^−1,–,–,–,–
C=C(C)C(=O)Nc1c(SC[C@H](O)[C@H](O)[C@H](O)CO)[nH]c(=O)[nH]c1=O [Compound 51],Competitive,0.92 ± 0.03 m^−1,17 ± 1 µM,–,–,–,–,–,–,–,Uncompetitive,0.84 ± 0.01 m^−1,> 1000 µM,10 ± 0 µM,–,–,–,–,–
CCC(=O)Nc1c(SC[C@H](O)[C@H](O)[C@H](O)CO)[nH]c(=O)[nH]c1=O [Compound 49],Competitive,0.65 ± 0.01 m^−1,11 ± 1 µM,–,–,–,–,–,–,–,Uncompetitive,0.76 ± 0.01 m^−1,> 1000 µM,10 ± 1 µM,–,128 µM,–,–,–
"CC1(O)C(=O)Nc2c([nH]c(=O)[nH]c2=O)N1C[C@H](O)[C@H](O)[C@H](O)CO (stereo partly drawn) [Compound 69, 7-Hydroxy-7-methyl-8-[(2S,3S,4R)-2,3,4,5-tetrahydroxypentyl)-7,8-dihydropteridin-2,4,6(1H, 3H, 5H)-trione]",Competitive,–,19 ± 2 µM,–,–,–,–,–,–,–,Competitive,0.67 ± 0.02 m^−1,–,8.9 ± 0.7 µM,0.59 ± 0.02 m^−1,–,–,submicromolar,–
C=C(C)C(=O)Nc1c(OC[C@H](O)[C@H](O)[C@H](O)CO)[nH]c(=O)[nH]c1=O [Compound 46],Uncompetitive,0.57 ± 0.01 m^−1,12 ± 1 µM,–,–,–,–,–,–,–,Uncompetitive,0.58 ± 0.01 m^−1,>1000 µM,9.2 ± 0.6 µM,–,>1000 µM,–,–,> 1 mM
"C=C(C)C(=O)Nc1c(NC[C@H](O)[C@H](O)[C@H](O)CO)[nH]c(=O)[nH]c1=O [Compound 56, N-[2,4-Dioxo-6-((2S,3S,4R)-2,3,4,5-tetrahydroxypentylamino]-1,2,3,4-tetrahydropyrimidin-5-yl)methacrylamide]",Uncompetitive,–,19 ± 2 µM,–,–,–,–,–,–,–,Partial,0.57 ± 0.02 m^−1,35 ± 14 µM,7.0 ± 0.6 µM,0.52 ± 0.02 m^−1,> 1000 µM,inactive,–,> 1 mM
